Laboratory results taken from ChEMBL document CHEMBL2074315, “Role of human organic anion transporter 4 in the transport of ochratoxin A” (Biochim Biophys Acta, 2002).

Legend:
Assay type in all cases: functional, cell-based
[1] = target: T1, Solute carrier family 22 member 11 (Homo sapiens, UniProt Q9NSA0); test: TP_TRANSPORTER: inhibition of Ochratoxin A uptake (OTA: 1 uM, Aspartame: 200 uM) in OAT4-expressing S2 cells; conditions: s2, 200 µM
T1 sequence (Q9NSA0 whole entry): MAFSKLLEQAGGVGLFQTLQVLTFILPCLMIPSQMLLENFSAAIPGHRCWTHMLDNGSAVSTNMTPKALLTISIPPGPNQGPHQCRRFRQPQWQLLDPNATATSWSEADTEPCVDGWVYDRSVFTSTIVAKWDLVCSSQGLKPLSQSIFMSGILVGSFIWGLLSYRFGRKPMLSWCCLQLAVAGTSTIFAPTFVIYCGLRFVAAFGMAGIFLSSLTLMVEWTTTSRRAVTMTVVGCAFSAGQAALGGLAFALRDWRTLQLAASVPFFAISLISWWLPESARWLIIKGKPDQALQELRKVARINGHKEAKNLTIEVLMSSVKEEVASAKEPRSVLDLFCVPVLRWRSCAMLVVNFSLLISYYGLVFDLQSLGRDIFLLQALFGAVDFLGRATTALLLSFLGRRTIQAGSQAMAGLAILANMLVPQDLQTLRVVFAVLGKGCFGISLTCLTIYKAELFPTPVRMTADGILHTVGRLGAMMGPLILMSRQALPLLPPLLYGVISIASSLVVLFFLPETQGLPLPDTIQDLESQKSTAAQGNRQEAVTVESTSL

[2] = target: T2, OAT4 (SLC22A11, solute carrier family 22 member 11) (Homo sapiens, UniProt Q9NSA0); test: TP_TRANSPORTER: uptake in OAT4-expressing S2 cells
T2 sequence (Q9NSA0 whole entry): T1 sequence (Q9NSA0 whole entry)

[3] = target: T1, Solute carrier family 22 member 11; test: TP_TRANSPORTER: inhibition of Ochratoxin A uptake (OTA: 1 uM, PAH: 200 uM) in OAT4-expressing S2 cells; conditions: mouse, s2, 200 µM
[4] = target: T1, Solute carrier family 22 member 11; test: TP_TRANSPORTER: inhibition of Ochratoxin A uptake in OAT4-expressing S2 cells
[5] = target: T1, Solute carrier family 22 member 11; test: TP_TRANSPORTER: inhibition of Ochratoxin A uptake (OTA: 1 uM, Indomethacin: 200 uM) in OAT4-expressing S2 cells; conditions: mouse, s2, 200 µM
[6] = target: T1, Solute carrier family 22 member 11; test: TP_TRANSPORTER: inhibition of Ochratoxin A uptake (OTA: 1 uM, PCG: 200 uM) in OAT4-expressing S2 cells; conditions: s2, 200 µM

SMILES: COC(=O)[C@H](Cc1ccccc1)NC(=O)[C@@H](N)CC(=O)O
- Activity [1]: inhibitor [(at a rough estimate) 80 % of control]

SMILES: C[C@@H]1Cc2c(Cl)cc(C(=O)N[C@@H](Cc3ccccc3)C(=O)O)c(O)c2C(=O)O1 [3R14S-OCHRATOXIN A]
- Km [2]: 22.9 µM

SMILES: Nc1ccc(C(=O)NCC(=O)O)cc1 [AMINOHIPPURIC ACID]
- Activity [3]: is not an inhibitor [-]

SMILES: CC1=C2C(=CO[C@H](C)[C@H]2C)C(O)=C(C(=O)O)C1=O [CITRININ]
- Ki [4]: 366 µM

SMILES: COc1ccc2c(c1)c(CC(=O)O)c(C)n2C(=O)c1ccc(Cl)cc1 [INDOMETHACIN]
- Activity [5]: inhibitor [(at a rough estimate) 75 % of control]

SMILES: CCCCCCCC(=O)O [OCTANOIC ACID]
- Ki [4]: 236 µM

SMILES: CC1(C)S[C@@H]2[C@H](NC(=O)Cc3ccccc3)C(=O)N2[C@H]1C(=O)O [PENICILLIN G]
- Activity [6]: inhibitor [(at a rough estimate) 20 % of control]

SMILES: CN1C(C(=O)Nc2ccccn2)=C(O)c2ccccc2S1(=O)=O [PIROXICAM]
- Ki [4]: 108 µM
